Reference: PubChem BioAssay (NCI)
Several values for one entry are separate records, joined by “and”; a condition that tells them apart may be missing. Identical values can stand only once.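 Assay format: 96-well plates, 48-hour exposure. GI50 = concentration required for 50% inhibition of growth. TGI: total growth inhibition.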

Assays:
Experiment in all cases: DTP human tumour cell line panel, 48 h
[1] = tested on: 786-0 renal
[2] = tested on: A498 renal
[3] = tested on: A549 NSCLC
[4] = tested on: ACHN renal
[5] = tested on: BT-549 breast
[6] = tested on: CAKI-1 renal
[7] = tested on: CCRF-CEM leukemia
[8] = tested on: COLO 205 colon
[9] = tested on: DU-145 prostate
[10] = tested on: EKVX NSCLC
[11] = tested on: HCC-2998 colon
[12] = tested on: HCT-116 colon
[13] = tested on: HCT-15 colon
[14] = tested on: HL-60(TB) leukemia
[15] = tested on: HOP-62 NSCLC
[16] = tested on: HOP-92 NSCLC
[17] = tested on: HS 578T breast
[18] = tested on: HT29 colon
[19] = tested on: IGROV1 ovarian
[20] = tested on: K-562 leukemia
[21] = tested on: KM12 colon
[22] = tested on: LOX IMVI melanoma
[23] = tested on: M14 melanoma
[24] = tested on: MALME-3M melanoma
[25] = tested on: MCF7 breast
[26] = tested on: MDA-MB-231 breast
[27] = tested on: MDA-MB-435
[28] = tested on: MDA-N
[29] = tested on: MOLT-4 leukemia
[30] = tested on: NCI-H226 lung
[31] = tested on: NCI-H23 lung
[32] = tested on: NCI-H460 lung
[33] = tested on: NCI-H522 lung
[34] = tested on: NCI/ADR-RES ovarian
[35] = tested on: OVCAR-3 ovarian
[36] = tested on: OVCAR-4 ovarian
[37] = tested on: OVCAR-5 ovarian
[38] = tested on: OVCAR-8 ovarian
[39] = tested on: PC-3 prostate
[40] = tested on: RPMI-8226 leukemia
[41] = tested on: RXF 393 renal
[42] = tested on: SF-268 CNS
[43] = tested on: SF-295 CNS
[44] = tested on: SF-539 CNS
[45] = tested on: SK-MEL-2 melanoma
[46] = tested on: SK-MEL-28 melanoma
[47] = tested on: SK-MEL-5 melanoma
[48] = tested on: SK-OV-3 ovarian
[49] = tested on: SN12C renal
[50] = tested on: SNB-19 CNS
[51] = tested on: SNB-75 CNS
[52] = tested on: SR leukemia
[53] = tested on: SW-620 colon
[54] = tested on: T-47D breast
[55] = tested on: TK-10 renal
[56] = tested on: U251 CNS
[57] = tested on: UACC-257 melanoma
[58] = tested on: UACC-62 melanoma
[59] = tested on: UO-31 renal

CN(C)c1ccc(/C=C/c2ccnc3ccccc23)cc1
GI50 [1]: 3.77 µM
TGI [1]: > 100 µM and 21.6 µM
GI50 [2]: 4.03 µM
TGI [2]: > 100 µM and 24.8 µM
GI50 [3]: 4.14 µM
TGI [3]: > 100 µM
GI50 [4]: 5.58 µM
TGI [4]: > 100 µM
GI50 [5]: 1.88 µM
TGI [5]: > 100 µM and 14.6 µM
GI50 [6]: 9.68 µM
TGI [6]: > 100 µM and 45 µM
GI50 [7]: 4.52 µM
TGI [7]: > 100 µM
GI50 [8]: 3.37 µM
TGI [8]: > 100 µM and 16 µM
GI50 [9]: 5.86 µM
TGI [9]: > 100 µM
GI50 [10]: 3.19 µM
TGI [10]: > 100 µM and 30.2 µM
GI50 [11]: 5.95 µM
TGI [11]: > 100 µM and 33 µM
GI50 [12]: 3.09 µM
TGI [12]: > 100 µM and 13.8 µM
GI50 [13]: 3.76 µM
TGI [13]: > 100 µM
GI50 [14]: 2.86 µM
TGI [14]: > 100 µM and 16.8 µM
GI50 [15]: 3.34 µM
TGI [15]: > 100 µM and 16.6 µM
GI50 [16]: 0.651 µM
TGI [16]: > 100 µM and 10.8 µM
GI50 [17]: 3.67 µM
TGI [17]: 57 µM and > 30.1 µM
GI50 [18]: 3.18 µM
TGI [18]: 84.3 µM and 11.8 µM
GI50 [19]: 5.61 µM
TGI [19]: > 100 µM
GI50 [20]: 1.66 µM
TGI [20]: > 100 µM
GI50 [21]: 3.11 µM
TGI [21]: > 100 µM and 33.7 µM
GI50 [22]: 4.7 µM
TGI [22]: > 100 µM and 19.7 µM
GI50 [23]: 2.55 µM
TGI [23]: > 100 µM and 12.7 µM
GI50 [24]: 11.2 µM
TGI [24]: > 100 µM and 55.4 µM
GI50 [25]: 0.922 µM
TGI [25]: > 100 µM and 44.4 µM
GI50 [26]: 5.36 µM
TGI [26]: > 100 µM and 30 µM
GI50 [27]: 1.36 µM
TGI [27]: 72.6 µM and 20.7 µM
TGI [28]: 40.1 µM
GI50 [29]: 3.59 µM
TGI [29]: 43.6 µM
GI50 [30]: 3 µM
TGI [30]: 48 µM
GI50 [31]: 3.83 µM
TGI [31]: > 100 µM and 23 µM
GI50 [32]: 3.07 µM
TGI [32]: > 100 µM and 16.8 µM
GI50 [33]: 10.5 µM
TGI [33]: > 100 µM
GI50 [34]: 2.26 µM
GI50 [35]: 2.71 µM
GI50 [36]: 16.8 µM
TGI [36]: > 100 µM
GI50 [37]: 6.9 µM
TGI [37]: > 100 µM and 49.6 µM
GI50 [38]: 5.68 µM
TGI [38]: > 100 µM
GI50 [39]: 3.28 µM
TGI [39]: > 100 µM and 46.6 µM
GI50 [40]: 2.77 µM
TGI [40]: > 100 µM and 12.9 µM
GI50 [41]: 13.4 µM
TGI [41]: > 100 µM
GI50 [42]: 5.58 µM
TGI [42]: > 100 µM
GI50 [43]: 3.43 µM
TGI [43]: > 100 µM and 21.2 µM
GI50 [44]: 3.14 µM
TGI [44]: > 100 µM and 17.5 µM
GI50 [45]: 26.2 µM
TGI [45]: > 100 µM
GI50 [46]: 9.01 µM
TGI [46]: > 100 µM
GI50 [47]: 2.48 µM
TGI [47]: > 100 µM and 11.7 µM
GI50 [48]: 4.42 µM
TGI [48]: > 100 µM and 48.7 µM
GI50 [49]: 3.95 µM
TGI [49]: > 100 µM
GI50 [50]: 6.56 µM
TGI [50]: > 100 µM
GI50 [51]: 2.41 µM
TGI [51]: > 100 µM and 11.9 µM
TGI [52]: > 100 µM
GI50 [53]: 2.96 µM
TGI [53]: > 100 µM
GI50 [54]: 2.57 µM
TGI [54]: > 100 µM and 63.8 µM
GI50 [55]: 9.49 µM
TGI [55]: > 100 µM and 58.4 µM
GI50 [56]: 4.04 µM
TGI [56]: > 100 µM and 63.4 µM
GI50 [57]: 22.2 µM
TGI [57]: > 100 µM and 71.2 µM
GI50 [58]: 3.11 µM
TGI [58]: > 100 µM and 29.5 µM
GI50 [59]: 12.1 µM
TGI [59]: > 100 µM

NC(CCCCNc1ccn(C2OC(CO)C(O)C2O)c(=O)n1)C(=O)O (stereo unspecified)
TGI [1]: > 100 µM
TGI [2]: > 100 µM
TGI [3]: > 100 µM
TGI [4]: > 100 µM
TGI [5]: > 100 µM
TGI [6]: > 100 µM
TGI [7]: > 100 µM
TGI [8]: > 100 µM
TGI [9]: > 100 µM
TGI [10]: > 100 µM
TGI [11]: > 100 µM
TGI [13]: > 100 µM
TGI [14]: > 100 µM
TGI [16]: > 100 µM
TGI [17]: > 100 µM
TGI [19]: > 100 µM
TGI [20]: > 100 µM
TGI [21]: > 100 µM
TGI [22]: > 100 µM
TGI [23]: > 100 µM
TGI [24]: > 100 µM
TGI [25]: > 100 µM
TGI [26]: > 100 µM
TGI [27]: > 100 µM
TGI [28]: > 100 µM
TGI [29]: > 100 µM
TGI [30]: > 100 µM
TGI [32]: > 100 µM
TGI [33]: > 100 µM
TGI [34]: > 100 µM
TGI [35]: > 100 µM
TGI [36]: > 100 µM
TGI [37]: > 100 µM
TGI [38]: > 100 µM
TGI [39]: > 100 µM
TGI [40]: > 100 µM
TGI [41]: > 100 µM
TGI [42]: > 100 µM
TGI [43]: > 100 µM
TGI [44]: > 100 µM
TGI [45]: > 100 µM
TGI [46]: > 100 µM
TGI [47]: > 100 µM
TGI [49]: > 100 µM
TGI [50]: > 100 µM
TGI [51]: > 100 µM
TGI [52]: > 100 µM
TGI [53]: > 100 µM
TGI [54]: > 100 µM
TGI [55]: > 100 µM
TGI [56]: > 100 µM
TGI [57]: > 100 µM
TGI [58]: > 100 µM
TGI [59]: > 100 µM

CC(=O)Oc1cccc2c1C(=O)c1c(OC(C)=O)cc(C)cc1C2=O
TGI [1]: 72.5 µM
TGI [2]: > 100 µM
TGI [3]: > 100 µM
TGI [4]: > 100 µM
TGI [5]: > 100 µM
TGI [6]: > 100 µM
TGI [7]: > 100 µM
TGI [8]: > 100 µM
TGI [9]: > 100 µM
TGI [10]: > 100 µM
TGI [11]: > 100 µM
TGI [12]: > 100 µM
TGI [13]: > 100 µM
TGI [14]: > 100 µM
TGI [15]: > 100 µM
TGI [16]: > 100 µM
TGI [17]: > 100 µM
TGI [18]: > 100 µM
TGI [19]: > 100 µM
TGI [20]: > 100 µM
TGI [21]: > 100 µM
TGI [22]: > 100 µM
TGI [23]: > 100 µM
TGI [24]: > 100 µM
TGI [25]: > 100 µM
TGI [26]: > 100 µM
TGI [27]: > 100 µM
TGI [28]: > 100 µM
TGI [29]: > 100 µM
TGI [30]: > 100 µM
TGI [31]: > 100 µM
TGI [32]: > 100 µM
TGI [33]: > 100 µM
TGI [34]: > 100 µM
TGI [35]: > 100 µM
TGI [36]: > 100 µM
TGI [37]: > 100 µM
TGI [38]: > 100 µM
TGI [39]: > 100 µM
TGI [40]: 43.8 µM
TGI [41]: > 100 µM
TGI [42]: > 100 µM
TGI [43]: > 100 µM
TGI [44]: > 100 µM
TGI [45]: > 100 µM
TGI [46]: > 100 µM
TGI [47]: > 100 µM
TGI [48]: > 100 µM
TGI [49]: > 100 µM
TGI [50]: > 100 µM
TGI [51]: > 100 µM
TGI [52]: > 100 µM
TGI [53]: > 100 µM
TGI [54]: > 100 µM
TGI [55]: > 100 µM
TGI [56]: > 100 µM
TGI [57]: > 100 µM
TGI [58]: > 100 µM
